One assay deals with IL6. The experiment in a line: IL-6 Quantification Assay (ELISA), LPS-stimulated RAW 264.7. More on the design: inhibition: dose or concentration left out as unconfirmed. To be noted: Mus musculus, RAW264.7, read-out: IL-6: % inh. The format is cell-based.
In assay [1] the test system is Smad2/Smad3 phosphorylation. As to the kind of experiment: Phospho-Smad2/3 Inhibition Assay (western blot), Panc-1. The format is cell-based, human. To be noted: at 10 μM, Panc-1 pancreatic cancer cell line; starred symbols = activation. In a few lines: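 Western blotting of lysates (15-50 μg protein) read phosphorylation of Smad2 Ser465/467 and Smad3 Ser423/425. Before lysis, Panc-1 cells got 1 h of 10 ng/ml TGF-b1 following 3 h compound exposure at 37° C (10 μM final, or serial dilutions for IC50, 0.3% DMSO) after overnight 0.5% FBS starvation.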
(In western blotting, separated proteins are transferred to a membrane and probed.)

The test system of assay [2] is MiaPaca-2 (expressing KRAS G12C mutant). As to the kind of experiment: Proliferation Assay (Cell Viability Assay). To be noted: Homo sapiens, MIA PaCa-2; read-out: Proliferation in MiaPaca-2: IC50. Format: cell-based. In short, it runs like this:
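After 2–4 days' exposure at 37 °C, 5% CO2 to a single 10 μM final concentration or a dilution series (IC50), percent proliferation inhibition was derived from CellTiter 96 Aqueous One viability readings. The medium contained 0.3% DMSO and 10% FBS. KRAS G12C MiaPaca-2 cells were plated at 2000–5000/well the day before.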

A further assay has as its system TNF-alpha. As to the kind of experiment: TNF-alpha Quantification Assay (ELISA), LPS-stimulated RAW 264.7. The format is cell-based. To be noted: Mus musculus, RAW264.7; at 10 μM; read-out: TNFα: % inh.

Bounds are passed on as bounds.

On to `CO[C@H]1CC[C@@H](Nc2nc(-c3ccccn3)nn3cc(-c4ccn(C(C)C)n4)c(-c4ccccc4)c23)C1` (racemic) [Compound 24, rac 6-(1-Isopropyl-1H-pyrazol-3-yl)-N-((1R,3S)-3-methoxycyclopentyl)-5-phenyl-2-(pyridin-2-yl)pyrrolo[2,1-f][1,2,4]triazin-4-amine], for which the inhibition in the assay on IL6 lay within 25 to 49%. The “% inh of Smad2/3 phosphorylation in Panc-1” value (shortened to “% inh”) in assay [1] was “B (B = 26-45% inhibition)”. For the same compound, in assay [2], the IC50 was over 1000 nM. In the assay with TNF-alpha, the inhibition at 10 µM lay within 25 to 49%.

Regarding `CCOc1cc(Nc2nc(-c3nccn3C)nn3cc(-c4ccn(C)n4)c(C)c23)n[nH]1` [Compound 260, N-(5-Ethoxy-1H-pyrazol-3-yl)-5-methyl-2-(1-methyl-1H-imidazol-2-yl)-6-(1-methyl-1H-pyrazol-3-yl)pyrrolo[2,1-f][1,2,4]triazin-4-amine], in the assay on IL6, the inhibition was 75 to 100%. Also, the “% inh” value in assay [1] was “A* (A* = 1-25% activation)”. Also, in assay [2], the IC50 is over 1000 nM. Also, in the assay with TNF-alpha, the inhibition at 10 µM was in the range of 25 to 49%.

Regarding `COC[C@@H]1CC[C@@H]1CNc1nc(-c2ccccn2)nn2cc(-c3ccn(C(C)C)n3)c(-c3ccccc3)c12` (racemic) [Compound 26, rac 6-(1-Isopropyl-1H-pyrazol-3-yl)-N-(((1S,2R)-2-(methoxymethyl)cyclobutyl)methyl)-5-phenyl-2-(pyridin-2-yl)pyrrolo[2,1-f][1,2,4]triazin-4-amine], in the assay on IL6, the inhibition fell in the range of 50 to 74%. Also, the “% inh” value in assay [1] is on record as “C (C = 46-75% inhibition)”. Besides, the IC50 in assay [2] was 510 to 1000 nM. The inhibition at 10 µM in the assay with TNF-alpha lay in the range of 1 to 24%.

Take `COc1cccc(-c2cn3nc(-c4nccn4C)nc(N[C@@H]4CC[C@H](OC)C4)c3c2-c2ccccc2)c1Cl` (racemic) [Compound 33, rac 6-(2-Chloro-3-methoxyphenyl)-N-((1R,3S)-3-methoxycyclopentyl)-2-(1-methyl-1H-imidazol-2-yl)-5-phenylpyrrolo[2,1-f][1,2,4]triazin-4-amine]: the inhibition at 10 µM with IL6 (at 10 μM) and in the assay on TNF-alpha was 75 to 100% in each case. Besides, the “% inh” value in assay [1] is “D (D = 76-100% inhibition)”. Moreover, in assay [2], the IC50 was 510 to 1000 nM.

In the case of `Cc1c(-c2ccn(C(C)C)n2)cn2nc(-c3nccn3C)nc(Nc3cc(C4CC4)n[nH]3)c12` [Compound 68, N-(3-Cyclopropyl-1H-pyrazol-5-yl)-6-(1-isopropyl-1H-pyrazol-3-yl)-5-methyl-2-(1-methyl-1H-imidazol-2-yl)pyrrolo[2,1-f][1,2,4]triazin-4-amine], in the assay on IL6, the inhibition fell in the range of 1 to 24%. Also, the “% inh” value in assay [1] is “A* (A* = 1-25% activation)”. Also, the IC50 in assay [2] was under 150 nM. Further, in the assay on TNF-alpha, the inhibition at 10 µM lay within 25 to 49%.

As for `COc1cccc(-c2cn3nc(-c4nccn4C)nc(N[C@@H]4CC[C@@H](OC)C4)c3c2-c2ccccc2)c1F` (racemic) [Compound 43, rac 6-(2-Fluoro-3-methoxyphenyl)-N-((1R,3R)-3-methoxycyclopentyl)-2-(1-methyl-1H-imidazol-2-yl)-5-phenylpyrrolo[2,1-f][1,2,4]triazin-4-amine], in the assay on IL6, the inhibition was 25 to 49%. Besides, the “% inh” value in assay [1] was “D (D = 76-100% inhibition)”. In addition, the IC50 in assay [2] was over 1000 nM. In addition, the inhibition at 10 µM in the assay with TNF-alpha is 1 to 24%.

Turning to `Cc1c(-c2ccn(C(C)C)n2)cn2nc(-c3nccn3C)nc(Nc3ncccn3)c12` [Compound 54, 6-(1-Isopropyl-1H-pyrazol-3-yl)-5-methyl-2-(1-methyl-1H-imidazol-2-yl)-N-(pyrimidin-2-yl)pyrrolo[2,1-f][1,2,4]triazin-4-amine], the inhibition in the assay on IL6 was in the range of 25 to 49%. In assay [1], the “% inh” value is listed as “A (A = 1-25% inhibition)”. The IC50 in assay [2] was under 150 nM. Moreover, in the assay on TNF-alpha, the inhibition at 10 µM lay in the range of 1 to 24%.
